According to patent US20030194409A1, “Conjugate heat shock protein-binding peptides” (priority 2002, published 2003):
Like-named read-outs stand apart in the source and are kept apart here. Where a SMILES comes first, the peptide text is derived from it.

Columns and labels:
[1] = 17- versus 19-allylamino derivative of herbimycin A; cited from earlier work
[2] = tested on: OVA-peptide pulsed EL4 cells; assay: 51Cr release assay with effector cells from immunized mice; format: cell-based, C57BL/6 mice; conditions: mice immunized once or twice; OVA-primed EL-4 target cells
Experimental: Preparation of hsp70 and/or peptide for use in immunization. Approximately 15 μg hsp70 and 12 μg OVA-BiP were mixed, on ice, to a final volume of 10 μL in Buffer Y (to produce a final concentration of 21.5 μM hsp70, 0.5 mM OVA-BiP, 20 mM HEPES pH 7.0, 150 mM KCl, 10 MM (NH4)2SO4, 2 mM MgCl2 and 2 mM MgADP, pH 7.0). The mixture was incubated for 30 minutes at 37° C. and was used for in vivo immunizations. Similar incubations were carried out with (i) 5 μl TiterMax adjuvant (Vaxcell, Norcross, Ga.) and 12 μg OVA-BiP (ii) 5 μl TiterMax and 5 μg OVA peptide or (iii) 12 μg OVA-BiP alone.
Preparation of cells for chromium release assay. […]
Chromium release assay. […] Supernatants were harvested and radioactivitiy released by cytotoxic activity was measured in a gamma counter. The percent specific lysis was calculated as 100×[(cpm release by CTL−cpm spontaneously released)/(cpm maximal release−cpm spontaneously released)]. Maximal release was determined by adding 1% NP-40 to lyse all cells. Spontaneous release of all target in the absence of effector cells (measured in a culture of target cells (in the absence of effector cells) maintained in parallel for the duration of the assay) was less than 20% of the maximal release.

[3] = target: T1, gp96 in the presence of herbimycin A (Mus musculus, UniProt P08113); assay: Affinity panning of phage display heptapeptide library on gp96 in the presence of herbimycin A; format: binding; conditions: TWEEN 20
T1 construct: The mouse cDNA encoding mature gp96 (i.e., wherein the endoplasmic reticulum signal peptide has been removed) was incorporated into the pET 11 a expression vector; made in house; host or cells: Escherichia coli BL21 (pET11gp96)
T1 sequence (P08113 22-802): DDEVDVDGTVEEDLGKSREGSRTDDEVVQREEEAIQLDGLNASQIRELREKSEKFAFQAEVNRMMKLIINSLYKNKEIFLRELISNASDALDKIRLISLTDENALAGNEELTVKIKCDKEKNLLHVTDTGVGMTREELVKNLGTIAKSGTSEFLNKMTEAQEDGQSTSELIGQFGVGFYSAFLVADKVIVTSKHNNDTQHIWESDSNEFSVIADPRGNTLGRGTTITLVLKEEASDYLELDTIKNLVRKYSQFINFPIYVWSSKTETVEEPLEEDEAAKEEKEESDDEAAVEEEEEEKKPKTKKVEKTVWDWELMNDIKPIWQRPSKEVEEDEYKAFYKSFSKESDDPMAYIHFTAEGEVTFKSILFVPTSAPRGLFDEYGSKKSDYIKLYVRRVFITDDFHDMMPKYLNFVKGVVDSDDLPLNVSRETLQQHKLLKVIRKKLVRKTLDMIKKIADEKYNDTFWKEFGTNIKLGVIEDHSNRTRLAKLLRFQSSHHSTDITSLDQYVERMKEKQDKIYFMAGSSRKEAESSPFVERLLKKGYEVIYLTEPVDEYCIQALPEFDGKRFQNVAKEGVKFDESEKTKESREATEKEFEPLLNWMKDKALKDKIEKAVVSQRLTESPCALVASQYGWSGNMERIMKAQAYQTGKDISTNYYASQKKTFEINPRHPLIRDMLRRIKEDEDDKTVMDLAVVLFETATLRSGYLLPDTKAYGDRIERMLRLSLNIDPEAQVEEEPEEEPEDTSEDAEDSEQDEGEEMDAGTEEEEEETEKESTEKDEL
Experimental: Preparation of a gp96 expression vector. The mouse cDNA encoding mature gp96 (i.e., wherein the endoplasmic reticulum signal peptide has been removed) was incorporated into the pET 11 a expression vector (Novagen) as follows. Gp96 cDNA insert was prepared by polymerase chain reaction (PCR) of a pRc/CMV clone containing the cDNA using the following oligonucleotide primers: […]
Expression of gp96. pET11gp96 was transformed into BL21 Escherichia coli cells, and plated on LB plates containing ampicillin (50 μg/ml). One of the resulting colonies was used to inoculate a 20 ml overnight culture of 2×TY medium containing ampicillin (150 μg/ml). The following day, the resulting culture was spun down and the harvested bacteria were resuspended in 1 ml of fresh medium. Two one liter cultures were then each inoculated with 0.5 ml of the harvested cells and allowed to grow at 37° C. until the optical density, measured at 600 nm, was 0.5. Then, IPTG was added to a concentration of 1 mM and the cells were cultured for another 3 hours before being harvested by centrifugation. The resulting cell pellet was resuspended in 20 ml of 50 mM HEPES pH 7.5, 50 mM KCl, 5 mM MgAcetate, 20% sucrose and 1 mM PMSF. Cell extracts were prepared by pressure shearing in a French Press. The lysates were then spun at 100,000×g for 1.5 hours and the supernatant, which constituted crude gp96 extract, was collected.
Purification of gp96. The following steps were all performed at 4° C. A 12.5 cm×3.2 cm column of DE52 resin (Whatman) was equilibrated in a solution of 50 mM MOPS pH 7.4, 10 mM NaCl, 5 mM MgAcetate (hereafter, “Buffer A”). The crude gp96 extract was diluted 2-fold and immediately loaded onto the column at a flow rate of 2 ml/min. Elution from the column was achieved using a gradient of a solution of 50 mM MOPS pH 7.4, 1M NaCl, 5 mM MgAcetate (hereafter, “Buffer B”) from 0% to 100% Buffer B over 1000 ml. The elution profile was examined by subjecting fractions collected from the column to SDS-PAGE analysis. Fractions containing gp96 were pooled and diluted 2-fold with cold water, and were immediately run onto the next column (see below).
A 10 cm×1 cm column of hydroxyapatite (BioRad) was washed with 100 ml 0.5 M K2HPO4, 50 mM KCl pH 7.4 and then equilibrated with 10 mM K2HPO4, 50 mM KCl pH 7.4. The pooled diluted fractions from the DE52 column were loaded onto this column at a flow rate of 1 ml/min. The gp96 protein was eluted in a gradient of 10-500 mM K2HPO4 over 800 ml. Fractions containing gp96 were pooled and loaded onto the phenylsepharose column described below.
A 9 cm×3 cm column of phenylsepharose (Pharmacia) was equilibrated with 500 mM NaCl, 50 mM MOPS pH 7.4. The pooled fractions containing gp96 from the hydroxyapatite were loaded onto this column at 1 ml/min and the gp96 was eluted in a gradient of 500-0 mM NaCl over 800 ml. The gp96 containing fractions collected from the column were identified by SDS-PAGE, pooled, and concentrated.
The gp96 was then loaded onto a Hi Load 26/60 Superdex-200 column (Pharmacia) equilibrated with 100 mM NaCl, 5 mM MgAcetate, 50 mM MOPS pH 7.5, 3 ml fractions were collected, and the fractions containing the most pure gp96 (as identified by SDS PAGE using a 12 percent reducing gel) and pooled. To the pooled fractions, glycerol was added to 10% (v/v), and then the fractions were concentrated to 21 mg/ml on a Centricon-50 concentrator (Amicon), frozen using liquid nitrogen, and stored at −80° C.
Affinity panning. The Ph.D. Phage Display Library Kit (New England BioLabs, Beverly, Mass.), was used for affinity panning. For each panning experiment, a well of a 96-well polystyrene microtiter plate (each well having a 6 mm diameter) was filled with 150 μl of a solution of 200 μg/ml of gp96 in 0.1 M NaHCO3 pH 8.3. If herbimycin A was to be included in the experiment, 1 μl of 10 mg/ml herbimycin A (GIBCO) in DMSO was added to each well, corresponding to a 50-fold molar excess relative to gp96. […]

[4] = target: T1, gp96 in the presence of herbimycin A; conditions: expected frequency for comparison with % actual, cited from earlier work
EG7 cells = assay: EG7 tumor cell challenge after immunization; format: in vivo, C57BL/6 mice; conditions: peptide alone, without TiterMax or hsp70, eight mice per group
Experimental: C57BL/6 mice, 8-10 weeks old, were immunized intradermally with one of the following (eight mice in each group): (a)5 μl TiterMax and 5 μg OVA peptide; (b) 15 μg hsp70 and 5 μg OVA peptide; (c) 5 μl TiterMax and […] (OVA-BiP); (d) 15 μg hsp70 and 12 μg OVA-BiP; (e) control (four animals only in this group); (f) 5 μg OVA peptide; or (g) 12 μg OVA-BiP. The mice then were injected with 4×10^6 EG7 cells. Tumor size was evaluated over time by measuring two diameters, the greatest diameter and the diameter perpendicular to the greatest diameter, and then calculating the average diameter. The results are shown in FIGS. 8A-G (corresponding to groups a-g, as set forth above).

[5] = Table XII, gp96 and herbimycin A, binding buffer without calcium: 20 mM HEPES pH 7.5, 100 mM KCl, 1 mM DTT, 1 mM MgAcetate, 42 phage-expressed peptides sequenced
[6] = Table XIV, gp96 in the presence of herbimycin A, binding buffer with ATP: 20 mM HEPES pH 7.5, 100 mM KCl, 1 mM CaCl2, 1 mM MgAcetate, 1 mM ATP
[7] = Table XVI, binding buffer with AMP-PNP instead of ATP: 20 mM HEPES pH 7.5, 100 mM KCl, 1 mM CaCl2, 1 mM MgAcetate, 1 mM AMP-PNP

Compound	% actual (amino acid frequency in sequenced gp96-binding phage-expressed heptapeptides) [3, 5] [%]	% actual (amino acid frequency in sequenced gp96-binding phage-expressed heptapeptides) [3, 6] [%]	% actual (amino acid frequency in sequenced gp96-binding phage-expressed heptapeptides) [3, 7] [%]	% expected (amino acid frequency) ([4]; Table XII) [%]	% expected (amino acid frequency) ([4]; Table XIV) [%]	% expected (amino acid frequency) ([4]; Table XVI) [%]	further results
17-allylamino herbimycin							activity [1]: more active than 19-allylamino herbimycin
CC[C@H](C)[C@H](NC(=O)[C@@H](NC(=O)[C@@H](N)CO)[C@@H](C)CC)C(=O)N[C@@H](CC(N)=O)C(=O)N[C@@H](Cc1ccccc1)C(=O)N[C@@H](CCC(=O)O)C(=O)N[C@@H](CCCCN)C(=O)N[C@@H](CC(C)C)C(=O)NCC(=O)N[C@@H](CO)C(=O)NCC(=O)N[C@@H](Cc1c[nH]cn1)C(=O)N[C@@H](Cc1c[nH]c2ccccc12)C(=O)N[C@@H](CC(=O)O)C(=O)N[C@@H](Cc1ccccc1)C(=O)N[C@@H](C)C(=O)N[C@@H](Cc1c[nH]c2ccccc12)C(=O)N1CCC[C@H]1C(=O)N[C@@H](Cc1c[nH]c2ccccc12)C(=O)O [OVA-BiP] (H-SIINFEKLGSGHWDFAWPW-OH)							OVA-specific cytotoxic immune response [2]: significant anti-OVA immune response
N[C@@H](Cc1ccc(O)cc1)C(=O)O [Tyr]	4.76	7.1	4.28	2.9	2.9	2.9	
CC(C)[C@H](N)C(=O)O [Val]	4.08	5.3	8.5	4.3	4.3	4.3	
Ser Ile Ile Asn Phe Glu Lys Leu (SIINFEKL; printed: Ser Ile Ile Asn Phe Glu Lys Leu) [OVA peptide]							tumor-free animals (EG7 cells): no animals were tumor-free
